Experimental data: PubChem BioAssay (NCI)
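1) Cells in 96-well plates. 2) Compound, 48 h, 5 concentrations. 3) Linear interpolation between surrounding doses. 4) Unreached endpoint = highest concentration. TGI: total growth inhibition.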

Columns and labels:
Experiment in all cases: growth of human tumour cells (NCI), 48 h
K-562 leukemia = tested on: K-562 leukemia
SNB-19 CNS = tested on: SNB-19 CNS
M14 melanoma = tested on: M14 melanoma
EKVX NSCLC = tested on: EKVX NSCLC
UO-31 renal = tested on: UO-31 renal
HCT-15 colon = tested on: HCT-15 colon
HCT-116 colon = tested on: HCT-116 colon
TK-10 renal = tested on: TK-10 renal
U251 CNS = tested on: U251 CNS
SK-OV-3 ovarian = tested on: SK-OV-3 ovarian

CCCSc1ccc2[nH]c(N3C(=O)/C(=C/c4ccco4)N=C3c3ccccc3)cc2c1
TGI (K-562 leukemia): > 50 µM
TGI (SNB-19 CNS): > 50 µM
TGI (M14 melanoma): > 50 µM
TGI (EKVX NSCLC): > 50 µM
TGI (UO-31 renal): > 50 µM
TGI (HCT-15 colon): > 50 µM
TGI (HCT-116 colon): > 50 µM

COc1cc(C2c3cc4c(cc3[C@@H](Nc3ccccc3)C3COC[C@H]23)OCO4)cc(OC)c1O (stereo not given in full)
TGI (SNB-19 CNS): > 100 µM
TGI (TK-10 renal): > 100 µM
TGI (M14 melanoma): > 100 µM
TGI (EKVX NSCLC): > 100 µM
TGI (UO-31 renal): 3.71 µM
TGI (HCT-15 colon): 12.9 µM
TGI (U251 CNS): 16.1 µM
TGI (SK-OV-3 ovarian): > 100 µM
TGI (HCT-116 colon): 19.8 µM

CC(NC(=O)C(C)NC(=O)C(N)CCP(C)(=O)O)C(=O)O (stereo not given)
TGI (K-562 leukemia): > 100 µM
TGI (SNB-19 CNS): > 100 µM
TGI (EKVX NSCLC): > 100 µM
TGI (UO-31 renal): > 100 µM
TGI (HCT-15 colon): > 100 µM
TGI (U251 CNS): > 100 µM
TGI (SK-OV-3 ovarian): > 100 µM
TGI (HCT-116 colon): > 100 µM

CCCCc1ccc(Nc2nc3c(ncn3C3CC(O)C(CN=[N+]=[N-])O3)c(=O)[nH]2)cc1 (stereo not given)
TGI (K-562 leukemia): > 100 µM
TGI (SNB-19 CNS): > 100 µM
TGI (M14 melanoma): > 100 µM
TGI (EKVX NSCLC): > 100 µM
TGI (UO-31 renal): > 100 µM
TGI (HCT-15 colon): > 100 µM
TGI (U251 CNS): > 100 µM
TGI (SK-OV-3 ovarian): > 100 µM
TGI (HCT-116 colon): > 100 µM

CC(O)c1cc2c(s1)C(=O)c1sccc1C2=O (stereo not given)
TGI (K-562 leukemia): > 100 µM
TGI (SNB-19 CNS): 0.292 µM
TGI (TK-10 renal): 0.459 µM
TGI (M14 melanoma): 0.0494 µM
TGI (EKVX NSCLC): 0.674 µM
TGI (UO-31 renal): 0.359 µM
TGI (HCT-15 colon): 0.178 µM
TGI (SK-OV-3 ovarian): 4.18 µM
TGI (HCT-116 colon): 0.485 µM

CCCCCCCCOC1C(O)C(O)C(O)C(O)C12CO2 (stereo not given)
TGI (K-562 leukemia): > 100 µM
TGI (SNB-19 CNS): > 100 µM
TGI (TK-10 renal): > 100 µM
TGI (UO-31 renal): > 100 µM
TGI (HCT-15 colon): > 100 µM
TGI (U251 CNS): > 100 µM
TGI (SK-OV-3 ovarian): > 100 µM
TGI (HCT-116 colon): > 100 µM

Cn1c(=O)c(C(=O)Nc2nc(C34CC5CC(CC(C5)C3)C4)cs2)c(O)c2ccccc21
TGI (K-562 leukemia): > 100 µM
TGI (SNB-19 CNS): > 100 µM
TGI (TK-10 renal): > 100 µM
TGI (EKVX NSCLC): > 100 µM
TGI (UO-31 renal): > 100 µM
TGI (HCT-15 colon): > 100 µM
TGI (U251 CNS): > 100 µM
TGI (HCT-116 colon): > 100 µM

NC(N)=N/N=C/c1nc2n(c1[N+](=O)[O-])CCS2
TGI (SNB-19 CNS): > 100 µM
TGI (TK-10 renal): > 100 µM
TGI (M14 melanoma): > 100 µM
TGI (EKVX NSCLC): 76.5 µM
TGI (UO-31 renal): > 100 µM
TGI (HCT-15 colon): > 100 µM
TGI (U251 CNS): 89.3 µM
TGI (SK-OV-3 ovarian): > 100 µM
TGI (HCT-116 colon): 54.1 µM

O=S(=O)(CCBr)CCBr
TGI (K-562 leukemia): > 48.8 µM
TGI (SNB-19 CNS): 35 µM
TGI (UO-31 renal): > 100 µM
TGI (HCT-15 colon): 7.88 µM
TGI (U251 CNS): 29.2 µM
TGI (SK-OV-3 ovarian): 43.6 µM
TGI (HCT-116 colon): 10.5 µM

COc1cc2c(c(OC)c1OC)-c1ccc(SC)c(=O)cc1[C@@H](NCc1ccc(C#N)cc1)CC2
TGI (K-562 leukemia): > 100 µM
TGI (SNB-19 CNS): > 100 µM
TGI (TK-10 renal): > 100 µM
TGI (EKVX NSCLC): > 100 µM
TGI (UO-31 renal): > 100 µM
TGI (HCT-15 colon): 0.0463 µM
TGI (U251 CNS): 0.00787 µM
TGI (HCT-116 colon): 0.0215 µM

CCOC(=O)C1=CNC(C(=O)OCC)C1c1cccn1-c1ccc(Cl)cc1[N+](=O)[O-] (stereo not given)
TGI (K-562 leukemia): 85.9 µM
TGI (TK-10 renal): 54.9 µM
TGI (M14 melanoma): 44.9 µM
TGI (EKVX NSCLC): 75.9 µM
TGI (UO-31 renal): > 100 µM
TGI (HCT-15 colon): 46.6 µM
TGI (U251 CNS): 41.1 µM
TGI (SK-OV-3 ovarian): > 100 µM
TGI (HCT-116 colon): 35.7 µM

O=C1Nc2ccccc2C12CCNC2Cc1ccccc1 (stereo not given)
TGI (K-562 leukemia): > 100 µM
TGI (SNB-19 CNS): > 100 µM
TGI (TK-10 renal): > 100 µM
TGI (M14 melanoma): > 100 µM
TGI (EKVX NSCLC): > 100 µM
TGI (HCT-15 colon): > 100 µM
TGI (U251 CNS): > 100 µM
TGI (SK-OV-3 ovarian): > 100 µM
TGI (HCT-116 colon): > 100 µM
